According to US6653311B1, “5-lipoxygenase inhibitors: (2-azinylamino) quinone derivatives” (Board of Supervisors of Louisiana State University, priority 2002, dated 2003):
Read-outs that look alike come from different tables or passages of the source.

Legend:
5-lipoxygenase (5-LO) = target: T1, 5-lipoxygenase (5-LO) (Oryctolagus cuniculus, UniProt G1SNX0); assay: Radioisotopic assay of 5-LO activity (LTB4 formation from 14C-arachidonic acid) in rabbit peritoneal PMNL stimulated with A-23187; format: cell-based; conditions: for inhibition at 1 µM: rabbit peritoneal neutrophils (PMNL), mean ± s.d. of three experiments in duplicate, read-out: % Inhibition (percent inhibition of LTB4 formation); for in vitro 5-LO activity in words: peritoneal PMNL
T1 construct: Polymorphonuclear leukocytes (PMNLs) were purified from rabbits by glycogen-intraperitoneal elicited intraperitoneal recruitment; endogenous in cells; host or cells: rabbit peritoneal polymorphonuclear leukocytes (PMNL), glycogen-elicited
T1 sequence (G1SNX0 1-674): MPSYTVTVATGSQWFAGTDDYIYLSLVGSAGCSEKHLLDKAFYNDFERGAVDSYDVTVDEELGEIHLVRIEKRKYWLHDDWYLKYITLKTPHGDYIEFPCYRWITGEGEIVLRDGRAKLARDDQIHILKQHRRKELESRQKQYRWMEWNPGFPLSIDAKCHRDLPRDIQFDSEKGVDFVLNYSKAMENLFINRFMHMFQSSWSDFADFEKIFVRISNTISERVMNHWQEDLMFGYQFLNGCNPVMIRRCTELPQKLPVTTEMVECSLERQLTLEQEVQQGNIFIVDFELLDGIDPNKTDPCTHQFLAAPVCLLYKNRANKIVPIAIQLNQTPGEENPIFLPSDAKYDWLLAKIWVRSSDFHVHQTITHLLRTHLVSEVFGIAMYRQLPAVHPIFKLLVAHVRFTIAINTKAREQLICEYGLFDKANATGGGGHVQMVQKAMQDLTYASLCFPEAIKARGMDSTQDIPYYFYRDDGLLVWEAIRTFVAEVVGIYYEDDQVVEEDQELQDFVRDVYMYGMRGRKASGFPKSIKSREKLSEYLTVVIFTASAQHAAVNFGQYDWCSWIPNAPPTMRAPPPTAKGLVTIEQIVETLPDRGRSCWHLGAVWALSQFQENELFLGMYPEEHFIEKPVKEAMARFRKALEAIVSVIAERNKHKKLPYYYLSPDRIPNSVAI
Source text: The 5-LO enzyme, which is found primarily in cells of myeloid origin such as polymorphonuclear leukocytes (“PMNL”), eosinophils, and macrophages, catalyzes the first step of the biochemical pathway in which arachadonic acid (“AA”) is,converted into LTA4. […] To test the inhibition of the quinone derivatives on the activity of 5-LO rabbit polymorphonuclear leucocytes (PMNLs) were used.
Polymorphonuclear leukocytes (PMNLs) were purified from rabbits by glycogen-intraperitoneal elicited intraperitoneal recruitment, as descrited in T. Yatabe et al., “Studies on 5-lipoxygenase inhibitors: I. Synthesis and 5-lipoxygenase inhibitory activity of novel hydroxanic acid derivatives,” chem. Pharm. Bull., vol. 46, pp. 966-972 (1998). An intraperitoneal injection of 300 mL of 0.1% (w/v) glycogen in sterile saline was administered 6 h before the rabbits were sacrificed by an intravascular injection of Nembutal. Peritoneal exudates were collected in 5 μM EGTA, and residual red cells were removed by lysis in ammonium chloride. These cell preparations were obtained with greater than 96% purity, as assessed by Wright-Giemsa staining and greater than 95% viability as assessed by Trypan blue exclusion.
PMNL cells in suspension were pre-incubated for 20 min at room temperature with ^14C-labeled arachadonic acid (AA) and diluted to 3000 cells μL^−1. Thereafter, the calcium ionophore A-23187 (1 μg/mL) was added to stimulate LTB4 production, and the cells further incubated for 15 min under stirring at 37° C. After incubation, the aqueous samples were successively shaken with a mixture of chloroform/methanol/formic acid (12:12:1) for 30 sec and then with chloroform for 10 sec. Organic phases containing LTB4, 5-HPETE (5-hydroperoxyeicosatetraenoic acid), diHPETEs (dihydroperoxyeicosatetraenoic acids), and prostaglandins (PGs) were pooled, evaporated to dryness under nitrogen and dissolved into a small amount of chloroform-MeOH (1:1). Separation of the 5-LO metabolites was performed by thin layer chromatography (TLC) on silica gel G plates developed in diethyl ether-hexane-acetic acid (60:40:1, v/v/v).
Bands containing 5-lipoxygenase (5-LO) metabolites were scraped from the TLC plates, and ^14C levels were quantitatively measured by liquid scintillation. 5-LO activity was an obtained from the amount of ^14C-arachidonic acid converted into LTB4 after the prelabeled PMNL cells were stimulated to produce LTB4 by the calcium ionophore as described above. IC50 was calculated as the concentration of the 5-LO antagonist that produced 50% inhibition of the metabolite conversion.
[…] IC50 values, calculated as theconcentration of test compound required to cause 50% inhibition of LTB4 formation, were also determined for some representative examples. […] These compounds, in general, correspond to compounds bearing the more lipophilic quinone fragments. […] See S. Ohkawa et al., “Dual Inhibition of Thromboxane A2 Synthetase and 5-Lipoxygenase with Scavenging Activity of Active Oxygen Species. Synthesis of a Novel Series of (3-Pyridylmethyl)benzoquinone Derivatives,” J. Med. Chem., vol. 34, pp. 267-276 (1991).

[1] = system: arachidonic acid-induced ear inflammation in mice; assay: Arachidonic acid-induced ear inflammation in mice (AAE test); format: in vivo; conditions: for change in vivo at 50 µg/ear / change in vivo at 100 µg/ear / change in vivo at 250 µg/ear: Mus musculus, mice, topical, read-out: % inhibition of AA-induced ear inflammation; for change in vivo at 50 µg/ear: 50 μg/ear; for change in vivo at 100 µg/ear: 100 μg/ear; for change in vivo at 250 µg/ear: 250 μg/ear
COX-1 = COX-1 (Homo sapiens, UniProt P23219); assay: In vitro inhibition of COX-1 activity; conditions: read-out: COX-1 percent inhibition
COX-1, sequence (P23219 24-599): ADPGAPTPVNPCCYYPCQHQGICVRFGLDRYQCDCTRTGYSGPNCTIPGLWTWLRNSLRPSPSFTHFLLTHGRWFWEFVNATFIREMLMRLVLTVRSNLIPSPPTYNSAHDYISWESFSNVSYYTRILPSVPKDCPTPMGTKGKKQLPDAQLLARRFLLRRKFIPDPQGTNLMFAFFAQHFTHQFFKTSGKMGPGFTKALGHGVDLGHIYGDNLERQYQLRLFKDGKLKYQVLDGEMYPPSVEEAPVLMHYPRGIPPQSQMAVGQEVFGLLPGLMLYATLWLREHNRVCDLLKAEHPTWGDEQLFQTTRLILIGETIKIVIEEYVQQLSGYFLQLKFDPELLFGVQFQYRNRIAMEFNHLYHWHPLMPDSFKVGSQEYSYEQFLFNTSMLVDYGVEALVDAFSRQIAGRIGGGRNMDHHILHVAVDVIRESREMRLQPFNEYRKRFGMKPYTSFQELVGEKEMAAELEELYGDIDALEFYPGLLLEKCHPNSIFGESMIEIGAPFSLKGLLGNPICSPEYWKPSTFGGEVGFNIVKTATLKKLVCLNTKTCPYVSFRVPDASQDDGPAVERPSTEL
Source text: (§1) Percent inhibition mean values ±SD from at least three individual determinations are shown.

COX-2 = target: T2, COX-2 (Homo sapiens, UniProt P35354); assay: In vitro inhibition of COX-2 activity; conditions: read-out: COX-2 percent inhibition
T2 sequence (P35354 18-604): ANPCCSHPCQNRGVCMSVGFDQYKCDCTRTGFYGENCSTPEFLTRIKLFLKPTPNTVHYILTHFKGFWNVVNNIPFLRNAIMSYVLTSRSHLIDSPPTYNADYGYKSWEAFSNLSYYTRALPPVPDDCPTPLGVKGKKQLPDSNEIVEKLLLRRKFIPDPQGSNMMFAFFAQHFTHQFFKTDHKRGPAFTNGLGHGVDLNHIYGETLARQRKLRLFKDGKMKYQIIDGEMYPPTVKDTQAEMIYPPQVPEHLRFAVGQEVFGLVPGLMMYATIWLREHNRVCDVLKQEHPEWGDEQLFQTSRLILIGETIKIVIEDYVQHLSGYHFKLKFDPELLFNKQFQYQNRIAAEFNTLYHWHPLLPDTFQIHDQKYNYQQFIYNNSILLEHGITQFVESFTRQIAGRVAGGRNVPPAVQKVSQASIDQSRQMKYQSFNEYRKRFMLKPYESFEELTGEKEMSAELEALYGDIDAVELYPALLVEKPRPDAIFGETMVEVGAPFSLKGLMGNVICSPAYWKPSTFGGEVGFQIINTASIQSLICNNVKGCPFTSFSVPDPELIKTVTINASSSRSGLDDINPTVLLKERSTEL
Source text: as §1

5-LO = target: T3, 5-LO (Rattus norvegicus, UniProt P12527); assay: 5-LO inhibition by radioimmunoassay (RIA) in rat peritoneal PMNL; conditions: inhibitors at 'AM final concentration' [sic], mean ± SD
T3 sequence (P12527 1-673): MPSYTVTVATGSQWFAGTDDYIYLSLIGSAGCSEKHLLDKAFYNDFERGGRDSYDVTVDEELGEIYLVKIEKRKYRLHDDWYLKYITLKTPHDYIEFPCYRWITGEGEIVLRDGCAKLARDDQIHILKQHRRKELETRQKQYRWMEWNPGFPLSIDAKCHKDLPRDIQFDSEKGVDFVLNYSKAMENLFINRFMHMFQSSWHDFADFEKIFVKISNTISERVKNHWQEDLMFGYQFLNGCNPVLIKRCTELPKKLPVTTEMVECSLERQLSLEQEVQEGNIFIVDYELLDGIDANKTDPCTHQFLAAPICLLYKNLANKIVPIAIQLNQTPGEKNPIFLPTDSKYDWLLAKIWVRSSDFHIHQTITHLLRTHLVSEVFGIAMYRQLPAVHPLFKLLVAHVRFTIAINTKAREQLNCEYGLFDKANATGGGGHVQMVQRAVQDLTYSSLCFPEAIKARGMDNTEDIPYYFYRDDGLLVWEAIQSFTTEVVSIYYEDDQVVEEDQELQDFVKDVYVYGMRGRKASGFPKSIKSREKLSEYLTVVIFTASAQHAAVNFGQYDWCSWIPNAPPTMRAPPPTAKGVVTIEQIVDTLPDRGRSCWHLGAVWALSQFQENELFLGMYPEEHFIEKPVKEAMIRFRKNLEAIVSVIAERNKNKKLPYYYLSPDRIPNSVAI
Source text: as §1

[2] = measured on PMNL, read-out: IC50 (concentration causing 50% inhibition of LTB4 formation), in parentheses (converted)

## CC1=CC(=O)C(Nc2ccccn2)=CC1=O [Compound 4c, 2-Methyl-5-(pyridin-2-ylamino)-[1,4]benzoquinone]
5-lipoxygenase (5-LO); PMNL, read-out: IC50 (5-LO, LTB4 formation)
  IC50: 18 nM
5-lipoxygenase (5-LO)
  inhibition at 1 µM: 94%
  in vitro 5-LO activity in words: potent in vitro 5-LO inhibitors
[1]; 4c 100 mg (ear) as printed, alone or co-applied with Indomethacin
  % inhibition (AAE test): 66%
[1]
  change in vivo at 50 µg/ear: -52.8 ± 6.4%
  change in vivo at 100 µg/ear: -63.7 ± 3.9%
  change in vivo at 250 µg/ear: -84.9 ± 2.4%
other
  melting point: 137 to 139 °C
COX-1
  inhibition at 500 µM: 5.2 ± 6.2%
COX-2
  inhibition at 500 µM: 20.1 ± 0.7%
5-LO
  5-LO percent inhibition: 85.8 ± 13.1%

## COC1=C(OC)C(=O)C(Nc2ccccn2)=C(C)C1=O [Compound 4e, 2,3-Dimethoxy-5-methyl-6-(pyridin-2-ylamino)-[1,4]benzoquinone]
5-lipoxygenase (5-LO)
  inhibition at 1 µM: 92 ± 4.7%
  in vitro 5-LO activity in words: potent in vitro 5-LO inhibitors
5-lipoxygenase (5-LO); [2]
  IC50: 155 nM
other
  melting point: 79 to 81 °C
COX-1
  inhibition at 500 µM: 11.2 ± 2.7%
COX-2
  inhibition at 500 µM: 9.4 ± 0.4%
5-LO
  5-LO percent inhibition: 95.4 ± 4.0%

## O=C1C=C(Nc2ccccn2)C(=O)c2ccccc21 [Compound 4i, 2-(Pyridin-2-ylamino)-[1,4]naphthoquinone]
5-lipoxygenase (5-LO)
  inhibition at 1 µM: 100 ± 0.4%
  in vitro 5-LO activity in words: potent in vitro 5-LO inhibitors
5-lipoxygenase (5-LO); [2]
  IC50: 45 nM
[1]
  change in vivo at 100 µg/ear: -20.4 ± 2.1%
other
  melting point: 205 to 206 °C
COX-1
  inhibition at 500 µM: 23.1 ± 4.6%
COX-2
  inhibition at 500 µM: 16.5 ± 6.1%
5-LO
  5-LO percent inhibition: 86.2 ± 10.0%

## O=C1C=C(Nc2ccc(Br)cn2)C(=O)c2ccccc21 [Compound 4l, 2-(5-Bromopyndin-2-ylamino)-[1,4]naphthoquinone]
5-lipoxygenase (5-LO)
  inhibition at 1 µM: 100 ± 0.5%
  in vitro 5-LO activity in words: potent in vitro 5-LO inhibitors
5-lipoxygenase (5-LO); [2]
  IC50: 142 nM
[1]
  change in vivo at 100 µg/ear: -42.2 ± 3.1%
  change in vivo at 250 µg/ear: -30.6 ± 2.2%
other
  melting point: 243 to 244 °C
COX-1
  inhibition at 500 µM: 16.8 ± 1.4%
COX-2
  inhibition at 500 µM: 8 ± 3.6%
5-LO
  5-LO percent inhibition: 85.5 ± 4.5%

## CC1=CC(=O)C(Nc2ncccn2)=CC1=O [Compound 4p, 2-Methyl-5-(pyrimidin-2-ylamino)-[1,4]benzoquinone]
5-lipoxygenase (5-LO)
  inhibition at 1 µM: 62 ± 1.7%
other
  melting point: 172 to 174 °C
COX-1
  inhibition at 500 µM: 8.4 ± 6.4%
COX-2
  inhibition at 500 µM: 0%
5-LO
  5-LO percent inhibition: 90.4 ± 3.3%

## O=C1C=C(Nc2ncccn2)C(=O)c2ccccc21 [Compound 4r, 2-(Pyrimidin-2-ylamino)-[1,4]naphthoquinone]
5-lipoxygenase (5-LO)
  inhibition at 1 µM: 98 ± 1.1%
  in vitro 5-LO activity in words: potent in vitro 5-LO inhibitors
5-lipoxygenase (5-LO); [2]
  IC50: 165 nM
[1]
  change in vivo at 100 µg/ear: -40 ± 1.9%
  change in vivo at 250 µg/ear: -29 ± 1.8%
other
  melting point: 245 to 247 °C
COX-1
  inhibition at 500 µM: 14.4 ± 1.3%
COX-2
  inhibition at 500 µM: 6.6 ± 14.9%
5-LO
  5-LO percent inhibition: 96.4 ± 1.9%

## CC1=C(C)C(=O)C(Nc2nc(C)cc(C)n2)=CC1=O [Compound 4s, 2,3-Dirnethyl-5-(4,6-dimethylpyfimidin-2-ylamino)-[1,4]benzoquinone]
5-lipoxygenase (5-LO)
  inhibition at 1 µM: 96 ± 1.7%
  in vitro 5-LO activity in words: potent in vitro 5-LO inhibitors
5-lipoxygenase (5-LO); [2]
  IC50: 175 nM
[1]
  change in vivo at 50 µg/ear: -17.3 ± 1.1%
  change in vivo at 100 µg/ear: -33.9 ± 3.9%
other
  melting point: 188 to 189 °C
COX-1
  inhibition at 500 µM: 8.4 ± 11.6%
COX-2
  inhibition at 500 µM: 3.3 ± 12.9%
5-LO
  5-LO percent inhibition: 89.6 ± 2.3%

## Cc1cc(C)nc(NC2=CC(=O)c3ccccc3C2=O)n1 [Compound 4t, 2-(4,6-Dimethylpyrimidin-2-ylamino)-[1,4]naphthoquinone]
5-lipoxygenase (5-LO)
  inhibition at 1 µM: 98 ± 1.3%
  in vitro 5-LO activity in words: potent in vitro 5-LO inhibitors
5-lipoxygenase (5-LO); [2]
  IC50: 161 nM
[1]
  change in vivo at 50 µg/ear: -3.3 ± 1.6%
other
  melting point: 196 to 197 °C
COX-1
  inhibition at 500 µM: 8.2 ± 2.5%
COX-2
  inhibition at 500 µM: 0%
5-LO
  5-LO percent inhibition: 86.3 ± 3.0%
